Source: article PMC6651038, “16-Hydroxy-Lycopersene, a Polyisoprenoid Alcohol Isolated from Tournefortia hirsutissima, Inhibits Nitric Oxide Production in RAW 264.7 Cells and Induces Apoptosis in Hep3B Cells” (Molecules, 2019)
Read-outs that look alike come from different tables or passages of the source.

Assays:
[1] = system: nitric oxide (NO) production in LPS-stimulated RAW 264.7 cells; assay: NO (nitrite, Griess) production in LPS-stimulated RAW 264.7 cells; type: cell-based, murine; details: for inhibitory activity on NO production: highest evaluated concentration (60 µg/mL)
Protocol: (§1) RAW 264.7 cells (murine macrophage cell line) were purchased from ATCC (Georgetown, Washington, DC, USA ) and cultured in Advanced DMEM/F12 medium (Gibco, Waltham, MA USA) supplemented with 1% GlutaMAX (Gibco) and 3.5% inactivated FBS (Gibco), without antibiotics at 37 °C in 5% CO2.
RAW 264.7 cells were seeding (2 × 10^4 cells in 200 µL) and incubated for 24 h, then, were treated with various concentrations of the investigated samples, indomethacin (30 µg/mL) or DMSO (0.4%, v/v) for 2 h followed by stimulation with 1 µg/mL of LPS (from E. coli purchased from Sigma Aldrich, St. Louis, MO, USA) for 21 h. The nitrite is a stable metabolite of the NO and its concentration was calculated with Griess reagent and the aid of a standard curve of NaNO2. Cell-free supernatants (50 µL) were collected and incubated for 10 min with the Griess reagent (50 µL of 0.1% N-(1-napthyl)-ethylenediamine dihydrochloride and 50 µL of 1% sulphanilamide both in 2.5% phosphoric acid) at room temperature and absorbance at 540 nm was measured using a microplate reader.

RAW 264.7 cells = assay: Cell viability of RAW 264.7 cells (MTS); type: cell-based, murine; details: at 30 and 60 µg/mL
Protocol: as §1
The cell viability was determined by using MTS from Promega. The cells (1 × 10^4 cells per well) were seeding in 96-well plates in 100 µL of medium and were incubated for 24 h. Then, the cells were treated with various concentrations of the investigated samples, positive control (etoposide, 30 µg/mL) or vehicle (0.4% DMSO in culture medium) and incubated for 24 h. Subsequently, 20 µL of MTS was added at 20 h of treatment for 4 h, after that, the absorbance at 490 nm was measured using a microplate reader (Biotek, Winooski, VT, USA). The absorbance of control cells (untreated) was taken as 100% viability. The concentration of DMSO together with the treatments, in the culture medium was ≤ 0.4%, v/v.

HeLa = assay: Antiproliferative MTS assay, HeLa; type: cell-based; details: Homo sapiens, 72 h
Protocol: (§2) PC3 (prostate), HeLa (cervical) and Hep3B and HepG2 (hepatocellular) human cancer cell lines were purchased from ATCC (Manassas, VA, USA). We also included immortalized human hepatocyte cell line (IHH) as a control of non-cancerous cells. PC3 was grown in RPMI-1640 medium (Sigma Aldrich, St. Louis, MO, USA), while Hep3B, HepG2, HeLa and IHH in DMEM medium (Invitrogen, Thermo Fisher Scientific, Waltham, MA, USA) supplemented with 10% SFB and 2 mM glutamine, all cultures were incubated at 37 °C in 5% CO2.
(§3) Cells (4 × 10^3 cells/well) were seeding in 96-well plates. The cells were treated with the investigated samples (at 0.01, 0.1, 1, 10 and 100 µg/mL) and incubated at 37 °C in 5% CO2 for 72 h. PTX was used as positive control. The number of viable cells in proliferation was checked by MTS assay, following the manufacturer’s instructions. The absorbance was measured at 450 nm using an automated ELISA reader (Promega, Madison, WI, USA).

PC3 = assay: Antiproliferative MTS assay, PC3; type: cell-based; details: Homo sapiens, PC-3, 72 h
Protocol: as §2, §3

HepG2 = assay: Antiproliferative MTS assay, HepG2; type: cell-based; details: Homo sapiens, 72 h
Protocol: as §2, §3

Hep3B = assay: Antiproliferative MTS assay, Hep3B; type: cell-based; details: Homo sapiens, 72 h
Protocol: as §2, §3

[2] = system: immortalized human hepatocyte cell line (IHH); assay: Antiproliferative MTS assay, IHH non-cancerous cells; type: cell-based; details: 72 h
Protocol: as §2, §3

Hep3B cells [3] = assay: Cell cycle analysis by flow cytometry, Hep3B; type: cell-based, human; details: treatment at IC50, 72 h, control 0.0%
Protocol: (§4) PC3, Hep3B, HepG2 and HeLa cells (1.25 × 10^5 cells/well) were seed in 6-well plates and allowed to attach overnight at 37 °C in 5% CO2. Exponential growing cells were treated with Compound 1 to the IC50 values for 72 h. PTX (10 nM) was included as a positive control of the G2/M phase arrest. Cells from each treatment were trypsinized and collected into single cell suspensions, centrifuged, and fixed in cold ethanol (70%) overnight at −20 °C. The cells were then treated with 0.01 M RNase (Sigma Aldrich, St. Louis, MO, USA) and stained with 7.5 µg/mL PI (Invitrogen) for 30 min in the dark. The percentage of cells in sub-G1, G1, S, and G2/M phases was analyzed with a flow cytometer (Becton Dickinson, FACS Calibur; Beckman Coulter, Inc., Brea, CA, USA) using 10,000 cells for each sample. Data obtained from the flow cytometer were analyzed using the FlowJo Software (Tree Star, Inc., Ashland, OR, USA).

HepG2 cells = assay: Cell cycle analysis by flow cytometry, HepG2; type: cell-based, human; details: HepG2, treatment at IC50, 72 h; control 1.5%
Protocol: as §4

PC3 cells = assay: Cell cycle analysis by flow cytometry, PC3; type: cell-based, human; details: PC3, treatment at IC50, 72 h; control 0.9%
Protocol: as §4

Hep3B cells [4] = assay: Annexin V-FITC/PI staining, flow cytometry; type: cell-based, human; details: Compound 1 21.3 µM, PTX 20 nM, 72 h
Protocol: Apoptosis was evaluated using Annexin V Apoptosis Detection Kit FITC (Thermo Fisher Scientific, CA, USA). Hep3B cells (2.5 × 10^5 cells) were treated with 1 (21.31 µM). PTX (20 nM) was used as positive control of apoptosis. After 72 h, the cells were harvested and washed twice with ice-cold PBS (0.01 M, pH 7.2). After 5 min of centrifuging at 200 g. Annexin V-FITC/PI staining were performed according to manufacturer’s instruction. Cell apoptosis was analyzed on flow cytometer (10,000 cells for each sample). Data obtained from the flow cytometer were analyzed using the FlowJo Software.

Hep3B cells [5] = assay: Cell morphology, acridine orange/ethidium bromide staining; type: cell-based, human; details: 21.3 µM (12 µg/mL), 72 h
Protocol: The morphological changes of Hep3B cells exposed to Compound 1 were evaluated using acridine orange (AO) and ethidium bromide (EB) staining. In brief, Hep3B cells (2 × 10^4 cells per well) were seeding in 24-well plates and exposed with Compound 1 at 21.31 µM for 72 h. After 72 h of treatment cells were exposed to a solution of 100 µg/mL AO and 100 µg/mL EB, according to reported procedures. For controls, the cells were grown 71 h before being treated 30 min with H2O2 (positive control of apoptosis) or being boiling in water at 95 °C for 10 s (positive control of necrosis). Then, the cells were observed using a fluorescence microscope.

Bcl-2 = assay: RT-PCR, Bcl-2 mRNA in Hep3B cells; type: cell-based, human; details: 21.3 µM, 72 h, vs non-treated control
Protocol: (§5) RNA was quantified using NanoDrop ND-1000 (Thermo Scientific, Waltham, MA, USA) and the RNA content was normalized. The RT-PCR was performed using a One-Step RT-PCR Kit with Thermo-Start Taq (Thermo Scientific, Waltham, MA, USA) following the manufacturer's instructions. PCR was performed with the following primers sequences: Bcl-2 ([NT]), Bax ([NT] ([NT]). Sequencing was performed at the Instituto de Biotecnología of Universidad Nacional Autónoma de México.

Bax = assay: RT-PCR, Bax mRNA in Hep3B cells; type: cell-based, human; details: 21.3 µM, 72 h, vs non-treated control
Protocol: as §5

caspase 3/7 = assay: Caspase-Glo 3/7 assay in Hep3B cells; type: cell-based, human; details: 21.3 µM (12 µg/mL), 72 h
Protocol: Hep3B cells (8 × 10^3 cells per well) were plated on 96-well plates and treated with 1 at 21.31 µM for 72 h. After treatment, the caspase 3/7 activity was determined using the luminescent Caspase-Glo® 3/7 Assay (Promega, Madison, WI, USA) following the manufacturer’s instructions. The results were represented as relative units of luminescence.

U937 cells = details: cited from earlier work
[6] = system: TPA-induced acute edema in mice ear; assay: TPA-induced ear edema in mice; type: in vivo; details: 1 mg/ear topical, male ICR mice, 6 h after TPA
Protocol: Edema in mice ear was induced with TPA purchased from Sigma Aldrich (St. Louis, MO, USA), following the method previously described. All animals were treated in accordance with Official Mexican Rule of Technical Specifications for the Production, Care and Use of Laboratory Animals (NOM-062-ZOO-1999 Guidelines) and international ethical guidelines for the care and use of experimental animals. The experimental protocol was authorized by the local Health Research Committee (Instituto Mexicano del Seguro Social (IMSS)). The experiments were carried out with male ICR mice weighing between 25–30 g (five animals per treatment). […] The treatments were applied topically on right ear and vehicle on left ear, thereafter, the edema was induced by administration topically of TPA (2.5 µg) over both ears. Six hours after administration of TPA, the animals were sacrificed by cervical dislocation. Circular sections 6 mm in diameter were taken from both the treated and non-treated ears and weighed to determine the inflammation.

[7] = system: pro-inflammatory cytokines; design: method as in PMID 27921103; details: 40 µM; via heme oxygenase-1 induction; cited from earlier work
[8] = 6 µM, mediated by caspase-3-like (CPP32-like) activation

| Compound | IC50 (HeLa) | IC50 (PC3) | IC50 (HepG2) | IC50 (Hep3B) | IC50 [2] | also measured |
| --- | --- | --- | --- | --- | --- | --- |
| CC(C)=CCC/C(C)=C/CC/C(C)=C/CC/C(C)=C/C[C@@H](O)/C=C(\C)CC/C=C(\C)CC/C=C(\C)CCC=C(C)C [Compound 1, (6E,10E,14E,18E,22E,26E)-2,6,10,14,19,23,27,31-octamethyldotriaconta-2,6,10,14,18,22,26,30-octaen-16R-ol] | 37.3 ± 3.5 µM | 32 ± 4.4 µM | 26.6 ± 3.5 µM | 21.3 ± 3.5 µM | 88.8 ± 8.9 µM | inhibition at 25.6 µM ([1]; Mus musculus, RAW264.7, 14.4 µg/mL (25.6 µM)): 28.6 ± 1.81%; effect on cell viability of RAW 264.7 cells (RAW 264.7 cells): decreased the cell viability; population in sub-G1 phase (Hep3B cells [3]): 18.5%; population in sub-G1 phase (HepG2 cells): 14.8%; population in sub-G1 phase (PC3 cells): 19.0%; percentage of early phase apoptosis cells (Hep3B cells [4]): 22.6%; morphological changes (AO/EB fluorescence microscopy) (Hep3B cells [5]): apoptotic bodies formation and clear condensation of chromatin; Bcl-2 transcripts (Bcl-2): inhibition of Bcl-2; Bax transcripts (Bax): increased Bax transcripts; Bax/Bcl-2 ratio (Bax): increasing the Bax/Bcl-2 ratio; caspase 3/7 activation (caspase 3/7): statistically significant increase in caspase 3/7 activation |
| CC(C)=CCC/C(C)=C/CC/C(C)=C/CC/C(C)=C/CC/C(C)=C\CC/C(C)=C\CC/C(C)=C\CC/C(C)=C\CC/C(C)=C\CC/C(C)=C\CC/C(C)=C\CC/C(C)=C\CO [Compound 2, (Z8,E3,ω)-dodecaprenol] | 95.7 ± 12 µM | 74.2 ± 5 µM | 76.6 ± 6 µM | 50.3 ± 5.9 µM | 76.6 ± 6 µM | inhibitory activity on NO production [1]: negligible inhibitory activity |
| CC(C)=CCC/C(C)=C/CC/C(C)=C/CC/C(C)=C/CC/C(C)=C\CC/C(C)=C\CC/C(C)=C\CC/C(C)=C\CC/C(C)=C\CC/C(C)=C\CC/C(C)=C\CC/C(C)=C\CC/C(C)=C\CO [Compound 3, (Z9,E3,ω)-tridecaprenol] | 84.1 ± 8.9 µM | 76.4 ± 6.6 µM | 74.2 ± 5.5 µM | 69.7 ± 5.5 µM | 74.1 ± 5.5 µM | inhibitory activity on NO production [1]: negligible inhibitory activity |
| CC(=O)O[C@H]1C(=O)[C@@]2(C)[C@H]([C@H](OC(=O)c3ccccc3)[C@]3(O)C[C@H](OC(=O)[C@H](O)[C@@H](NC(=O)c4ccccc4)c4ccccc4)C(C)=C1C3(C)C)[C@]1(OC(C)=O)CO[C@@H]1C[C@@H]2O [Paclitaxel, reference compound] | 0.01 ± 0.002 µM | 0.0154 ± 0.0035 µM | 0.0065 ± 0.0007 µM | 0.008 ± 0.001 µM | 0.08 ± 0.005 µM |  |
| CC(C)=CCC/C(C)=C/CC/C(C)=C/CC/C(C)=C/CC/C(C)=C/CC/C(C)=C/CC/C(C)=C/CC/C(C)=C\CC/C(C)=C/CCC(C)CCOP(=O)(O)O (stereo not drawn) [dihydrodecaprenyl phosphates, dihydrodecaprenyl phosphate] |  |  |  |  |  | apoptosis in U937 cells (U937 cells; [8]): induced apoptosis |
| COc1ccc2c(c1)c(CC(=O)O)c(C)n2C(=O)c1ccc(Cl)cc1 [indomethacin, reference compound] |  |  |  |  |  | edema inhibition [6]: 87.6 ± 0.4%; inhibition at 30 µg/mL ([1]; Mus musculus, RAW264.7, 30 µg/mL): 54.6 ± 8.9% |
| CC(C)=CCC/C(C)=C/CC/C(C)=C/CC/C(C)=C/CC/C(C)=C/CC/C(C)=C/CC/C(C)=C/CC/C(C)=C/CC/C(C)=C/CO [solanesol] |  |  |  |  |  | production of pro-inflammatory cytokines [7]: suppresses the production of pro-inflammatory cytokines |
| Dihydroheptaprenyl phosphate |  |  |  |  |  | apoptosis in U937 cells (U937 cells; [8]): induced apoptosis |
| Dolichyl phosphate |  |  |  |  |  | apoptosis in U937 cells (U937 cells; 8 µg/mL, by the MAP kinase cascade): induced apoptosis |
